Laboratory results from PubChem BioAssay (NCI).
Where “and” joins values, the source holds several entries; their conditions need not be identical. Equal values may be shown once.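 Exposure lasted 48 hours, with cells grown in 96-well plates and compounds tested at five concentrations. Abbreviation: GI50, concentration required for 50% inhibition of growth. TGI denotes the concentration required for complete inhibition of growth.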

Experiments:
Assay in all cases: NCI tumour cell line growth inhibition, 48 h
[1] = test system: TK-10 renal
[2] = test system: NCI-H460 lung
[3] = test system: PC-3 prostate
[4] = test system: OVCAR-3 ovarian
[5] = test system: HCT-116 colon
[6] = test system: KM12 colon
[7] = test system: 786-0 renal
[8] = test system: HOP-62 NSCLC
[9] = test system: HCT-15 colon
[10] = test system: MDA-MB-435

Row | SMILES | GI50 [1] | TGI [1] | GI50 [2] | TGI [2] | GI50 [3] | TGI [3] | GI50 [4] | TGI [4] | GI50 [5] | TGI [5] | GI50 [6] [nM] | TGI [6] | GI50 [7] | TGI [7] | GI50 [8] | TGI [8] | GI50 [9] | TGI [9] | GI50 [10] | TGI [10]
1 | O=c1oc2ccc(Br)cc2c(=O)n1-c1ccc(I)cc1F | 631 nM | 7.39 µM | 0.367 µM | 5.57 µM | 1130 nM | 5.86 µM | 336 nM | 8.52 µM | 396 nM | 1.53 µM | 1660 | 4.37 µM | 1960 nM | 6.16 µM | 774 nM | 7.76 µM | 400 nM | 5.96 µM | 409 nM | 3.82 µM
2 | COc1cc(C(=O)Nc2cc(OC)c3ccn(C)c3c2)cc2c1C[C@]1(C)CC[C@@H](O)C(C)(C)[C@H]1O2 | 3740 nM | 43.8 µM | 0.586 µM | > 100 µM | 195 nM | > 100 µM | 1680 nM | 4.86 µM | 733 nM | 17 µM | 2080 | > 100 µM | 87.8 nM | 5.22 µM | 770 nM | 13.1 µM | 1050 nM | > 100 µM | 1010 nM | 3.38 µM
3 | Cc1ccc2c(c1)S(=O)(=O)c1ccc3ccccc3c1N2 |  | > 100 µM |  | > 100 µM |  | > 100 µM |  | > 100 µM |  | > 100 µM |  | > 100 µM |  | > 100 µM |  | > 100 µM |  | > 100 µM |  | > 100 µM
4 | Oc1cc2ccccc2c(-c2c(O)c(O)cc3ccccc23)c1O | 1380 nM | 30.9 µM | 0.145 µM | 2.78 µM | 2170 nM | > 52.2 µM | 825 nM | 17.9 µM | 427 nM | 11.9 µM | 2810 | 17.4 µM | 201 nM | 1.07 µM | 1030 nM | 8.39 µM | 323 nM | 14.8 µM | 1170 nM | 12.4 µM
5 | CN(Cc1cc(Cl)cc(Cl)c1O)Cc1c(O)ccc2ccccc12 |  | 31.1 µM |  | 35.1 µM |  | 30.7 µM |  | 35.7 µM |  | 58.7 µM |  | 42.8 µM |  | 48.4 µM |  | 38.7 µM |  | 38.9 µM |  | 41.4 µM
6 | Cc1c(O)c2c(c(O)c1Br)C(=O)C=CC2=O | 343 nM | 2.55 µM and 1.15 µM |  | 2.74 µM | 1900 nM | 3.19 µM and 5.15 µM | 241 nM | 1.9 µM and 0.788 µM | 1010 nM | 0.817 µM and 2.16 µM | 3550 | 3.14 µM and 13.3 µM | 1460 nM | 0.428 µM and 3.02 µM | 2480 nM | 2.36 µM and 5.35 µM | 451 nM | 1.14 µM and 1.94 µM |  | 0.451 µM
7 | COc1cc2c(cc1Nc1nc(Nc3cccc(F)c3C(N)=O)c3cc[nH]c3n1)N(C(=O)CN1CCN(C(C)C)CC1)CC2 | 2970 nM | 7.55 µM | 3.36 µM | 7 µM | 5120 nM | 13.5 µM | 4520 nM | 8.69 µM | 3390 nM | 6.63 µM | 3820 | 7.31 µM | 3980 nM | 7.53 µM | 2880 nM | 5.92 µM | 4360 nM | 9.33 µM | 3120 nM | 6.98 µM
8 | COc1cc([C@@H]2C[C@H]2c2cc(SC)n[nH]2)cc(OC)c1OC | 22500 nM | 52.5 µM | 17.7 µM | 41.7 µM | 18100 nM | 57.2 µM | 13200 nM | 30.5 µM | 23600 nM | 85.7 µM | 15200 | 32.8 µM | 18000 nM | 44.6 µM | 5750 nM | 28.8 µM | 22800 nM | 80.2 µM | 11200 nM | 26.5 µM
9 | O=C(Nc1n[nH]c2nnc(-c3cccnc3)cc12)C1CC1 |  | > 25 µM | 8.13 µM | > 25 µM | 6440 nM | > 25 µM | 114 nM | > 18.4 µM | 4470 nM | > 19.5 µM | 5220 | > 20.1 µM | 3650 nM | > 25 µM | 10100 nM | > 25 µM | > 20300 nM | > 25 µM | > 11300 nM | > 25 µM
10 | CCCCCCCCC(=O)OCC(CS[As](C)C)OC(=O)CCCCCCCC (stereo not given) | 364 nM | 3.14 µM | 21.7 µM | 58.3 µM | 2600 nM | 21.8 µM | 191 nM | 0.583 µM | 373 nM | 11.3 µM | 2770 | 13.8 µM | 1160 nM | > 40.1 µM | 15100 nM | 53.1 µM | 629 nM | 10.4 µM | 196 nM | 0.652 µM
11 | NCC1OC(OC2C(CO)OC(OC3C(O)C(N)CC(N)C3OC3OC(CO)C(O)CC3N)C2O)C(N)C(O)C1OC1OC(CO)C(O)C(O)C1O (stereo not given) | > 50 µg/mL | > 50 µg/mL | > 50 µg/mL | > 50 µg/mL | > 50 µg/mL | > 50 µg/mL | > 50 µg/mL | > 50 µg/mL | > 50 µg/mL | > 50 µg/mL |  |  | > 50 µg/mL | > 50 µg/mL | > 50 µg/mL | > 50 µg/mL | > 50 µg/mL | > 50 µg/mL | > 50 µg/mL | > 50 µg/mL
12 | CCN1Cc2nc3sc(C)c(C)c3c(=O)n2C=C1C | 15100 nM | 83.4 µM | 40.6 µM | > 100 µM | 4070 nM | > 100 µM | 2750 nM | 9.74 µM | 1720 nM | 4.17 µM | 2800 | 14.4 µM | 16100 nM | 66.4 µM | 16400 nM | 75.1 µM | 3500 nM | 19 µM | 6480 nM | 39.1 µM
13 | CCN(CC)C1CCC(Nc2c(C(C)=O)cnc3ccc(-c4ccc(O)c(Cl)c4)cc23)CC1 (stereo not given) | 3520 nM | > 100 µM | 0.311 µM | 1.87 µM | 494 nM | > 44.5 µM | 380 nM | 3.15 µM | 568 nM | 4.59 µM | 432 | 4.28 µM | 1640 nM | 44.8 µM | 2140 nM | > 45.5 µM | 301 nM | 9.62 µM | 651 nM | 10.5 µM
